Reference: US8592451B2, “Reversible nondepolarizing neuromuscular blockade agents and methods for their use” (Cornell University, priority 2009, dated 2013)
“Also recorded” adds a separate entry of the source.

Columns and labels:
[1] = system: twitch of the extensor digitorum; test: Reversal of neuromuscular blockade by L-cysteine or neostigmine in anesthetized rhesus monkeys; format: in vivo, rhesus monkeys (Macaca mulatta)
Procedure: A control dose of 0.15 mg/kg CW 002 was allowed to recover spontaneously to TOF 110-120%. A second dose was given 60 minutes later, followed one minute afterwards by either neostigmine (0.05 mg/kg+atropine 0.05 mg/kg) or L-cysteine (10, 20, 30 or 50 mg/kg). Total duration and 5-95% recovery intervals were compared during spontaneous recovery vs. antagonism by L-cysteine or reversal by neostigmine.
This series of paired comparisons was designed to generate dose-response data comparing spontaneous recovery of high doses of CW 011 (from 4 to 64× ED95) versus immediate antagonism at +1 min by an optimal dose of L-cysteine (50 mg/kg), previously determined during studies of immediate antagonism of CW 002. This experiment was done to explore the limits of chemical antagonism by L-cysteine of these olefinic diester neuromuscular blocking drugs, using CW 011 as a typical example with an intermediate duration of action. Five groups of animals first received a control dose of CW 011 at 4, 8, 16, 32 or 64× ED 95 (0.1 to 1.6 mg/kg). Sixty minutes after spontaneous recovery of the control dose to TOF 110-120%, the same dose was repeated, followed 1 min later by L-cysteine (50 mg/kg). Total duration of action and 5-95% recovery interval were compared during spontaneous recovery and following antagonism by L-cysteine
The reversal of neuromuscular blockade by cysteine (5-50 mg/kg i.v.) was studied. Reversal was tested as follows: full paralysis was induced by injection of a dose of approximately 2-6× ED 95 of the compound in question. After spontaneous recovery of this dose, a second identical dose was given 15-30 min later. Cysteine was then given at +1 min after injection of the neuromuscular blocking drug at a point where no twitch was apparent (“immediate reversal”) or at the beginning of recovery from neuromuscular blockade at two percent twitch height (“classical reversal”). Comparisons were made among compounds with respect to rapidity and ease of cysteine reversal, by comparing 5-95% recovery times, and total durations of action (injection to 95% twitch recovery). Spontaneous recovery was compared with cysteine-accelerated recovery. […]

[2] = L-cysteine adduction kinetics in vitro (HPLC); format: physicochemical; conditions: pH 7.4, 37° C.; for NMBA peak area / [NMBA] remaining / ln* = ln (([NMBA]t[L-cysteine]t=0)/([NMBA]t=0[L-cysteine]t)): CW 002 1000 μg/mL + 1.05 equiv. L-cysteine
Procedure: In a second experiment, to evaluate degradation in the presence of L-cysteine, buffered solutions (pH 7.4) of gantacurium, CW 002 or CW 011 were freshly prepared at 37° C. to give experimental concentrations of 1000 μg/mL (CW 002 and CW 011) and 200 μg/mL (gantacurium), after addition to and mixing with a 5% Molar excess of L-cysteine at time=0.
The concentration of neuromuscular blocking agent/parent compound remaining at specified time points after mixing was determined by high performance liquid chromatography. The concentration of blocking agent at each time point was determined from a separately prepared reaction mixture, due to the rapid rate of L-cysteine adduction. The reaction rate constant for the second order reaction of each neuromuscular blockade agent (NMBA) with L-cysteine was derived by plotting the natural log of ([NMBA]t[L-cysteine]t=0/[NMBA]t=0[L-cysteine]t) vs. time.
Concentrations selected were 200, 100 and 50 μg/ml which are approximately proportional to the relative potencies (ED 95) of gantacurium, CW 002 and CW 011 respectively. A degradation (adduction) pathway in the presence of L-cysteine for each of the three compounds was proposed.
The reaction of L-cysteine with CW 002, CW 011 or gantacurium is first order in the case of both the neuromuscular blockade agent (NMBA) and L-cysteine, represented by the rate equation (1). d[Adduct]/dt=−d[NMBA]/dt=ka[NMBA][L-cysteine] (1)
Calculation of the L-cysteine adduction half time requires experimental derivation of the reaction rate constant, ka, for each compound. The initial concentrations of NMBA and L-cysteine are unequal in the experiments conducted for this study, thus integration of equation 1 gives equation 2, where [NMBA]0 is the NMBA concentration at time equals 0 and [NMBA]t is the NMBA concentration at a time point, t.
[formula] A plot of the ln(([NMBA]t [L-cysteine]0)/([NMBA]0 [L-cysteine]t)) versus time (ln* vs. t) gives a line, with slope equal to ka([NMBA]0−[L-cysteine]0). An adduction reaction half time can be calculated by solving for ka to be used in equation 3.
NMBA standard solutions were prepared by a method similar to that used to prepare hydrolysis standards. The standards were prepared at 1000 μg/mL for CW 002 and CW 011 and 200 μg/mL for gantacurium.
Solutions used for determination of NMBA concentration at the reported times for CW 002 and CW 011 were prepared as follows: L-cysteine hydrochloride monohydrate was charged to a volumetric flask in de-ionized water. A 5 mL aliquot of the L-cysteine solution (1.05 equiv. L-cysteine with respect to NMBA) was transferred by volumetric pipette to a flask held at 37.0±0.3° C. CW 002 or CW 011 was then charged to a separate 25 mL volumetric flask and diluted to volume with pH 7.4 phosphate buffer at 37.0° C. The NMBA solution was then immediately transferred to the flask containing L-cysteine to give an initial NMBA concentration of 1000 μg/mL. Solutions used for determination of gantacurium concentration versus time were prepared in a similar manner to give an initial concentration of 200 μg/mL. T=0 was defined as the time of addition of NMBA solution to L-cysteine solution. The times listed in the results table show the point of HPLC sample injection following mixing of L-cysteine and NMBA at time=0 (Table 1, below).
Rate constants were calculated using equation (3) and the slope of the trend line derived from each data set. The strong linear correlation of the data within each set supports the use of second order kinetics for analysis of the cysteine adduction reactions.
Reaction half times were calculated using equation 4 and the experimentally determined rate constants. The initial NMBA concentrations were chosen to reflect the relative potency observed in vivo.

[3] = system: twitch contractions of the extensor digitorum muscle; test: Rhesus monkey anesthesia bioassay for potency and duration (substituent and stereochemical comparison, preliminary studies); format: in vivo; conditions: rhesus monkeys
Procedure: Two stereoisomeric structures, CW 002 (R-trans, R-trans), and CW 003 (R-cis, R-cis) were tested in the rhesus monkey anesthesia bioassay for potency and duration. A third compound, CW 001 (R-trans, R-trans) bearing an additional methoxyl group on each of the two benzyl groups in the molecule, was also tested.
Rhesus monkeys were anesthetized with ketamine (7.5 mg/Kg) given intramuscularly or intravenously. Anesthesia was maintained with a mixture of isoflurane (1.5%), nitrous oxide (60%) and oxygen (40%). The common peroneal nerve was stimulated supramaximally with square wave pulses of 0.2 m sec duration at a rate of 0.15 Hz. Twitch contractions were recorded via the tendon of the extensor digitorum muscle.
In all animals, the trachea was intubated and ventilation was controlled at 12-15 ml/kg, 18-24 breaths per minute. A peripheral vein and artery were cannulated for drug administration and for recording of arterial pressure, respectively. In preliminary studies a neuromuscular blocking agent having one of the following structures was administered intravenously.

For COc1ccc(C[C@@H]2c3cc(OC)c(OC)cc3CC[N@@+]2(C)CCCOC(=O)/C=C/C(=O)OCCC[N@+]2(C)CCc3cc(OC)c(OC)cc3[C@H]2Cc2ccc(OC)c(OC)c2)cc1OC [CW 002], the “immediate antagonism of blockade by L-cysteine (FIG. 1B)” value ([1]; CW 002 0.15 mg/kg (~4× ED 95), L-cysteine 10, 20, 30 or 50 mg/kg at +1 min) was “dose-related acceleration of recovery”, the “immediate antagonism of blockade by neostigmine (FIG. 1A)” value ([1]; CW 002 0.15 mg/kg (~4× ED 95), neostigmine 0.05 mg/kg + atropine 0.05 mg/kg at +1 min) was “not achieved significantly faster than the spontaneous reversal; also recorded: did not shorten recovery” and the “time to reversal of blockade with cysteine (FIG. 1B)” value ([1]; CW 002 0.15 mg/kg, all cysteine concentrations tested (10 to 50 mg/kg)) was “less than 6 minutes”. For the same molecule, the “time from cysteine administration to beginning of reversal (FIG. 1B)” value ([1]; CW 002 0.15 mg/kg, higher cysteine doses) was 2 to 3 min, the “time to spontaneous reversal of blockade (FIG. 1)” value ([1]; CW 002 0.15 mg/kg, no reversal agent) was “more than 12 minutes” and the “reversibility of neuromuscular blockade by thiol compounds” value ([1]; cysteine (L or D) or glutathione) was “reversible”. The “effect of neostigmine given immediately after the blocking drug” value ([1]; immediate reversal) was “ineffective”, the “classical antagonism of neuromuscular blockade by neostigmine” value ([1]; neostigmine given at beginning of spontaneous recovery, e.g. at 2% twitch height) was “showed antagonism” and the NMBA peak area ([2]; Trial 1, 142 Sec) was 2746.0 mAU's. The “[NMBA] remaining” value ([2]; Trial 1, 142 Sec) was 224 µM, the “ln* = ln (([NMBA]t[L-cysteine]t=0)/([NMBA]t=0[L-cysteine]t))” value (“ln* = ln” below) ([2]; Trial 1, 142 Sec) was −0.240 and the NMBA peak area ([2]; Trial 2, 170 Sec) was 2350.7 mAU's. For the same molecule, the “[NMBA] remaining” value ([2]; Trial 2, 170 Sec) was 192 µM, the “ln* = ln” value ([2]; Trial 2, 170 Sec) was −0.277 and the NMBA peak area ([2]; Trial 3, 188 Sec) was 2237.9 mAU's. The “[NMBA] remaining” value ([2]; Trial 3, 188 Sec) was 183 µM, the “ln* = ln” value ([2]; Trial 3, 188 Sec) was −0.297 and the “Plot Slope (ln* vs. time)” value ([2]; L-cysteine adduction, data of Table 1) was −0.0012. For the same molecule, the “ka, second order rate constant of L-cysteine adduction” value [2] was 14.3 M⁻¹ s⁻¹, the half-life at 100 μg/ml ([2]; pH 7.4 phosphate buffer with L-cysteine, calculated at [NMBA]0 0.000102 M (100 μg/ml), read-out: L-cysteine adduction reaction half time t1/2) was 11.4 min and the “reversibility of effect by cysteine or glutathione” value [3] was “reversible”. The “Potency (ED95 mg/kg)” value ([3]; intravenously, preliminary studies) was 0.04 mg/kg, the “Duration at 4X ED95” value ([3]; preliminary studies, 4X ED95, head prints no unit (column beside it: minutes)) was 30-35 and the “Duration (minutes), from injection to 95% twitch recovery” value ([3]; preliminary studies, dose not printed (beside ED95 column)) was 20 to 25 min.
